Data published in patent US20260297042A1, “BIARYLAMIDE DERIVATIVES AND THEIR USE AS PKMYT1 INHIBITORS” (CANCER RESEARCH TECHNOLOGY LIMITED, priority 2023, published 2026).

The molecules below were run against T1, Human PKMYT1 (Homo sapiens, UniProt Q99640) (assay: PKMYT1 biochemical ADP-Glo enzymatic assay). Settings: ADP-Glo; 15 nM PKMYT1 kinase domain, 500 µM ATP, 60 minutes at 26° C.; banded.
T1 construct: Human PKMYT1 75-362 was cloned as a TEV cleavable 6xHis fusion; 6xHis (TEV cleavable) (cleaved yes); made in house; host or cells: bacterial cells
T1 sequence (Q99640 75-362): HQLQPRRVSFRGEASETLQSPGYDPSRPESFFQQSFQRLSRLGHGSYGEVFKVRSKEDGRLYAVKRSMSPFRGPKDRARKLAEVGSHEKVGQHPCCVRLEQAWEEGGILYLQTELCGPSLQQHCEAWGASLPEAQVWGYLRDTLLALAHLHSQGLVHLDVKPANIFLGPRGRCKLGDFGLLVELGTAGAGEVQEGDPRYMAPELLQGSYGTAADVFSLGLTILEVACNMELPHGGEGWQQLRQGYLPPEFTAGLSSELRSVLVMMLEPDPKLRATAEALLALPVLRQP
Method: Human PKMYT1 75-362 was cloned as a TEV cleavable 6xHis fusion in bacterial cells. After purification on a Ni++HiTrap Chelating HP column, the His-tag was cleaved using TEV protease. Cleaved PKMYT1 was further purified on a Superdex 200 16/600 sizing column. The fractions containing PKMYT1 were pooled and concentrated using an ultrafiltration centrifugal protein concentrator. The purified protein was aliquoted, flash frozen in liquid nitrogen, and stored at −80° C.
PKMYT1 biochemical assay: Inhibition of PKMYT1 was assessed using the ADP-Glo™ Max Detection System from Promega. This assay detects the production of ADP from ATP by PKMYT1 via a two-step process ultimately involving the conversion of ADP to ATP with the latter converted to light in a coupled reaction with luciferase/luciferin. Inhibition of PKMYT1 by small molecule inhibitors results in a retardation of luminescence above background. The intrinsic ATPase activity of PKMYT1 was assessed according to the following protocol. Compounds were dosed into Corning white low volume 384 well assay plates using an Echo acoustic dispenser to generate 10-point curves spanning a 3-fold dilution series. DMSO (no inhibitor) control wells were prepared to benchmark the maximum and minimum signals in the presence and absence of PKMYT1, respectively. The PKMYT1 kinase domain was purified in-house, as described above, and added to the wells at a final concentration of 15 nM in a buffer of 50 mM HEPES (pH 7.5), 10 mM MgCl2, 1 mM EGTA, 0.01% Brij-35, 1% DMSO. 500 µM ATP was added to start the reaction with the final assay volume being 4 μl. The plate was then incubated for 60 minutes at 26° C. before the addition of 4 μl of ADP-Glo Reagent to stop the reaction and deplete the unconsumed ATP. Following a further 60 minute incubation the assay signal was developed by the addition of 8 μl ADP-Glo Max Detection Reagent. After 60 minutes the luminescence signal was read on a PHERAStar FS microplate reader (BMG Labtech).
Data analysis: Data was captured and analysed within the Dotmatics Studies software module where dose response curves were generated and IC50 values determined. Acceptance and verification of data followed strict in-house business rules which are summarised as follows. […] Technical and biological replicates of each compound are routinely tested and replicate IC50 values must fall within 3-fold of each other with dose response curves showing ‘goodness of fit’ r2 values >0.9. Failure to meet any of these defined criteria result in rejection of data.
Cc1ccc(O)c(C)c1NC(=O)c1cnc(Nc2ccn([C@H]3CCOC3)n2)s1 [BAA-041] was tested, and the IC50 was 0.05 to 1 µM. Cc1ccc(O)c(C)c1NC(=O)c1cnc(NCC2CCN(CC(=O)N(C)C)CC2)s1 [BAA-216, 2-[[1-[2-(dimethylamino)-2-oxo-ethyl]-4-piperidyl]methylamino]-N-(3-hydroxy-2,6-dimethyl-phenyl)thiazole-5-carboxamide] was tested, and the IC50 was 1 to 11 µM. Cc1ccc(O)c(C)c1NC(=O)c1cnc(Nc2ccn([C@H]3CCCN(C(=O)OC(C)(C)C)C3)n2)s1 [BAA-039] gave an IC50 of 1 to 11 µM. Work on Cc1ccc(O)c(C)c1NC(=O)c1cnc(NCC2CCN(C(=O)CN3CCOCC3)CC2)s1 [BAA-217, N-(3-hydroxy-2,6-dimethyl-phenyl)-2-[[1-(2-morpholinoacetyl)-4-piperidyl]methylamino]thiazole-5-carboxamide] yielded an IC50 of 0.05 to 1 µM. With Cc1ccc(O)c(C)c1NC(=O)c1cnc(NCCC(C)(C)C)s1 [BAA-074, 2-(3,3-dimethylbutylamino)-N-(3-hydroxy-2,6-dimethyl-phenyl)thiazole-5-carboxamide] the IC50 was 1 to 11 µM. For Cc1ccc(O)c(C)c1NC(=O)c1cnc(NCCc2ccc(C(F)(F)F)cc2)s1 [BAA-075, N-(3-hydroxy-2,6-dimethyl-phenyl)-2-[2-[4-(trifluoromethyl)phenyl]ethylamino]thiazole-5-carboxamide], the IC50 was 1 to 11 µM. Cc1ccc(O)c(C)c1NC(=O)c1cnc(Nc2cn[nH]c2)s1 [BAA-026, N-(3-hydroxy-2,6-dimethyl-phenyl)-2-(1H-pyrazol-4-ylamino)thiazole-5-carboxamide] gave an IC50 of 1 to 11 µM. Work on CCOC(=O)c1coc(Nc2ncc(C(=O)Nc3c(C)ccc(O)c3C)s2)n1 [BAA-045] yielded an IC50 of 0.05 to 1 µM. In the case of Cc1ccc(O)c(C)c1NC(=O)c1cnc(Nc2ccn(CC(=O)NC[C@H](C)O)n2)s1 [BAA-174], the IC50 is reported as 0.05 to 1 µM. In the case of Cc1ccc(O)c(C)c1NC(=O)c1cnc(NCCCO)s1 [BAA-069, N-(3-hydroxy-2,6-dimethyl-phenyl)-2-(3-hydroxypropylamino)thiazole-5-carboxamide], the IC50 is reported as 1 to 11 µM. Work on Cc1ccc(O)c(C)c1NC(=O)c1cnc(Nc2cc(CN3CCN(CCO)CC3)n(C)n2)s1 [BAA-052, N-(3-Hydroxy-2.6-dimethyl-phenyl)-2-[[5-[[4-(2-hydroxyethyl)piperazin-4-ium-1-yl]methyl]-1-methyl-pyrazol-3-yl]amino]thiazole-5-carboxamide] yielded an IC50 of 1 to 11 µM. Work on Cc1cc(-c2ccc(F)cc2)cnc1Nc1ncc(C(=O)Nc2c(C)ccc(O)c2C)s1 [BAA-292, 2-((5-(4-fluorophenyl)-3-methylpyridin-2-yl)amino)-N-(3-hydroxy-2,6-dimethylphenyl)thiazole-5-carboxamide] yielded an IC50 of 1 to 11 µM. In the case of Cc1ccc(O)c(C)c1NC(=O)c1cnc(NCC2CCN(C(=O)CN3CCCC3)CC2)s1 [BAA-211, N-(3-Hydroxy-2.6-dimethyl-phenyl)-2-[[1-(2-pyrrolidin-1-ylacetyl)-4-piperidyl]methylamino]thiazole-5-carboxamide], the IC50 is reported as 1 to 11 µM. CCN(c1ccc(F)cc1)c1cccc(Nc2ncc(C(=O)Nc3c(C)ccc(O)c3C)s2)n1 [BAA-312, 2-((6-(ethyl(4-fluorophenyl)amino)pyridin-2-yl)amino)-N-(3-hydroxy-2,6-dimethylphenyl)thiazole-5-carboxamide] showed an IC50 of 1 to 11 µM. Cc1ccc(O)c(C)c1NC(=O)c1cnc(NC2CCCCC2)s1 [BAA-064, 2-(cyclohexylamino)-N-(3-hydroxy-2,6-dimethyl-phenyl)thiazole-5-carboxamide] showed an IC50 of 1 to 11 µM. With Cc1ccc(O)c(C)c1NC(=O)c1cnc(N[C@@H]2CCN(C(=O)OC(C)(C)C)C2)s1 [BAA-050] the IC50 was 1 to 11 µM. For Cc1ccc(O)c(C)c1NC(=O)c1cnc(Nc2ccn(CCNC(=O)OC(C)(C)C)n2)s1 [BAA-020, tert-butyl N-[2-[3-[5-[(3-hydroxy-2,6-dimethyl-phenyl)carbamoyl]thiazol-2-yl]amino]pyrazol-1-ylethyl]carbamate], the IC50 was 1 to 11 µM. Cc1ccc(O)c(C)c1NC(=O)c1cnc(Nc2ccc(-c3ccc(F)cc3)cn2)s1 [BAA-291, 2-((5-(4-fluorophenyl)pyridin-2-yl)amino)-N-(3-hydroxy-2,6-dimethylphenyl)thiazole-5-carboxamide] gave an IC50 of 1 to 11 µM. Cc1ccc(O)c(C)c1NC(=O)c1cnc(NCC(N)=O)s1 [BAA-070, 2-[(2-amino-2-oxo-ethyl)amino]-N-(3-hydroxy-2,6-dimethyl-phenyl)thiazole-5-carboxamide] showed an IC50 of 1 to 11 µM. Molecule Cc1ccc(O)c(C)c1NC(=O)c1cnc(N[C@H]2CCN(C(=O)OC(C)(C)C)C2)s1 [BAA-049, tert-butyl (3S)-3-[5-[(3-hydroxy-2,6-dimethyl-phenyl)carbamoyl]thiazol-2-ylamino]pyrrolidine-1-carboxylate] has an IC50 of 1 to 11 µM. With CCN(c1ccc(F)cc1)c1ccc(Nc2ncc(C(=O)Nc3c(C)ccc(O)c3C)s2)nc1 [BAA-311, 2-((5-(ethyl(4-fluorophenyl)amino)pyridin-2-yl)amino)-N-(3-hydroxy-2,6-dimethylphenyl)thiazole-5-carboxamide] the IC50 was 1 to 11 µM.

Same assay, conditions: PKMYT1 biochemical ADP-Glo enzymatic assay; Comparison Data 1
Cc1ccc(O)cc1NC(=O)c1cnc(N)s1 [REF-001, 2-Amino-N-(5-hydroxy-2-methyl-phenyl)thiazole-5-carboxamide, reference compound] was tested, and the IC50 was 53.2 µM. For Cc1c(O)cccc1NC(=O)c1cnc(N)s1 [REF-002, 2-Amino-N-(3-hydroxy-2-methyl-phenyl)thiazole-5-carboxamide, reference compound], the IC50 was 26.8 µM.

Same assay, conditions: PKMYT1 biochemical ADP-Glo enzymatic assay; Comparison Data 2
Cc1cccc(C)c1NC(=O)c1cnc(Nc2ccn(C)n2)s1 [REF-003, N-(2,6-Dimethylphenyl)-2-[(1-methylpyrazol-3-yl)amino]thiazole-5-carboxamide, reference compound] gave an IC50 of 54.3 µM. With COc1ccc(C)c(NC(=O)c2cnc(Nc3ccn(C)n3)s2)c1C [REF-004, N-(3-Methoxy-2,6-dimethyl-phenyl)-2-[(1-methylpyrazol-3-yl)amino]thiazole-5-carboxamide, reference compound] the IC50 was > 100 µM.

Same assay, conditions: PKMYT1 kinase domain 15 nM; ADP-Glo; banded values
Cc1cc(C)c(NC(=O)c2cnc(Nc3ccn(C)n3)s2)c(C)c1O [BAA-517, N-(3-Hydroxy-2,4,6-trimethylphenyl)-2-((1-methyl-1H-pyrazol-3-yl)amino)thiazole-5-carboxamide] showed an IC50 of 1 to 11 µM. In the case of Cc1ccc(N2CCN(C3CC3)CC2)nc1Nc1ncc(C(=O)Nc2c(C)ccc(O)c2C)s1 [BAA-433, 2-((6-(4-cyclopropylpiperazin-1-yl)-3-methylpyridin-2-yl)amino)-N-(3-hydroxy-2,6-dimethylphenyl)thiazole-5-carboxamide], the IC50 is reported as < 0.05 µM. CCN(CC)C(=O)Cn1nc(C(F)(F)F)cc1Nc1ncc(C(=O)Nc2c(C)ccc(O)c2C)s1 [BAA-561, 2-((1-(2-(diethylamino)-2-oxoethyl)-3-(trifluoromethyl)-1H-pyrazol-5-yl)amino)-N-(3-hydroxy-2,6-dimethylphenyl)thiazole-5-carboxamide] showed an IC50 of 1 to 11 µM. In the case of Cc1ccc(O)c(C)c1NC(=O)c1cnc(Nc2ccccc2C(C)C)s1 [BAA-525, N-(3-hydroxy-2,6-dimethylphenyl)-2-((2-isopropylphenyl)amino)thiazole-5-carboxamide], the IC50 is reported as 1 to 11 µM. Work on Cc1cc(Cl)c(O)c(C)c1NC(=O)c1cnc(Nc2ccn(C)n2)s1 [BAA-547, N-(4-chloro-3-hydroxy-2,6-dimethylphenyl)-2-((1-methyl-1H-pyrazol-3-yl)amino)thiazole-5-carboxamide] yielded an IC50 of 1 to 11 µM.
